The subject of test [1] is Pellicularia filamentosa (f. sp. sasiki). The experiment in a line: whole plant or invertebrate. Format: in vivo. The settings on record: 120 h; read-out: % Control RSB.
Test [2] relates to Escherichia coli. The test can be described thus: Broth two-fold serial dilution MIC test (Table 3), E.c. The conditions noted are these: gram negative, dilution series 500 to 4 ppm. Format: cell-based. An excerpt: (§1) A minimum inhibitory concentration (MIC) value is obtained using a broth, two-fold serial dilution test performed as follows: A stock solution or dispersion of the test compound, typically at a concentration of 1%, is made in a 5:3:2 solvent solution of acetone, methanol, and water. A volume of the stock solution is dispensed into culture media to give an initial starting test concentration of 500 ppm compound.
(§2) When the test is ready to be done, each vessel in the dilution series, except the first vessel, contains an equal volume of compound free broth. The first vessel contains twice the volume of broth with the starting concentration of test compound. One half of the broth from the first vessel is transferred to the second vessel. After being mixed, one half the resulting volume is removed from the second vessel and transferred to the third vessel. The entire cycle is repeated sufficiently to give a series of concentrations amounting to 500, 250, 125, 63, 31, 16, 8, and 4 ppm, respectively.
(§3) Each vessel is then inoculated with a cell suspension of the appropriate test organism. Bacteria are grown in broth and fungi on agar slants for a time and at a temperature appropriate to the species being tested. At the end of the growth period, the broth is vortexed to disperse the cells. In the case of fungi, the spores are harvested by pipetting water onto the slant and dislodging the spores with a sterile loop. The cell/spore suspension is standardized by controlling incubation time, temperature, and the volume of the diluent. The suspension is then used to inoculate the vessels containing the broth compound. The vessels are then incubated at the appropriate temperature. After the incubation, the vessels are examined for growth/no growth. The minimum inhibitory concentration (MIC) is defined as the lowest concentration of compound that results in complete inhibition of growth of the test organism.
Escherichia coli (E.c), gram negative

Test [3] has as its system Puccinia recondita (f. sp. tritici Races PKB and PLD). The test can be described thus: whole plant or invertebrate. Format: in vivo. The conditions noted are these: Puccinia recondita, 240 h; read-out: % Control WLR.
The test system of test [4] is Erysiphe graminis (f. sp. tritici). The experiment in a line: whole plant or invertebrate. Format: in vivo. The settings on record: Blumeria graminis; read-out: % Control WPM.
Test [5] concerns Aspergillus niger. The experiment in a line: Broth two-fold serial dilution MIC test (Table 3), A.n. The settings on record: dilution series 500 to 4 ppm. Format: cell-based.
Excerpt: as §1, §2, §3

In test [6] the test system is Aureobasidium pullulans. The experiment in a line: Broth two-fold serial dilution MIC test (Table 3), A.p. Format: cell-based. The settings on record: dilution series 500 to 4 ppm.
Excerpt: as §1, §2, §3
Aureobasidium pullulans (A.p)

Test [7] relates to Staphylococcus aureus. The experiment in a line: Broth two-fold serial dilution MIC test (Table 3), S.a. The settings on record: gram positive, dilution series 500 to 4 ppm. Format: cell-based.
Excerpt: as §1, §2, §3
Staphylococcus aureus (S.a), gram positive

In another test the test system is Phytophthora infestans. The test can be described thus: whole plant or invertebrate. Format: in vivo. The conditions noted are these: Phytophthora infestans, in Solanum lycopersicum, 96 h; for pest or weed control at 200 ppm: read-out: % Control TLB, application rate 200 ppm.
A further test relates to Piricularia oryzae. The test can be described thus: whole plant or invertebrate. Format: in vivo. The settings on record: Pyricularia oryzae; for pest or weed control at 100 ppm: read-out: % Control RB, application rate 100 ppm.
For test [8], the system named is Pseudoperonospora cubensis. The test can be described thus: whole plant or invertebrate. Format: in vivo. The conditions noted are these: Pseudoperonospora cubensis, in Cucumis sativus, 168 h; read-out: % Control CDM.
Test [9] deals with Puccinia graminis (f. sp. tritici Race 15B-2). The test can be described thus: whole plant or invertebrate. Format: in vivo. The conditions noted are these: Puccinia graminis, 336 h, read-out: % Control WSR.
Test [10] deals with Pseudomonas fluorescens. The test can be described thus: Broth two-fold serial dilution MIC test (Table 3), Ps.fl. Format: cell-based. The settings on record: gram negative, dilution series 500 to 4 ppm.
Excerpt: as §1, §2, §3
Pseudomonas fluorescens (Ps.fl), gram negative

The test system of test [11] is Pseudomonas aerugenosa. The experiment in a line: Broth two-fold serial dilution MIC test (Table 3), Ps.ae. Format: cell-based. The settings on record: gram negative, dilution series 500 to 4 ppm.
Excerpt: as §1, §2, §3
Pseudomonas aerugenosa (Ps.ae), gram negative

The subject of test [12] is Pseudomonas aerugenosa. The experiment in a line: Alternate Minimum Inhibitory Concentrations Test (Table 4), Ps.ae. Format: cell-based. The conditions noted are these: Table 4 alternate test, 250 ppm to 0.8 ppm in TSB.
Test [13] concerns Aureobasidium pullulans. The test can be described thus: Alternate Minimum Inhibitory Concentrations Test (Table 4), A.p. Format: cell-based. The settings on record: Table 4 alternate test, 250 ppm to 0.8 ppm in TSB.
Test [14] relates to Aspergillus niger. The experiment in a line: Alternate Minimum Inhibitory Concentrations Test (Table 4), A.n. Format: cell-based. The conditions noted are these: Table 4 alternate test, 250 ppm to 0.8 ppm in TSB.
For test [15], the system named is Staphylococcus aureus. The test can be described thus: Alternate Minimum Inhibitory Concentrations Test (Table 4), S.a. Format: cell-based. The settings on record: Table 4 alternate test, 250 ppm to 0.8 ppm in TSB.
For the next test, the system named is Candida albicans. The experiment in a line: Alternate Minimum Inhibitory Concentrations Test (Table 4), C.alb. Format: cell-based. The conditions noted are these: Table 4 alternate test, 250 ppm to 0.8 ppm in TSB.
Test [16] deals with Escherichia coli. The experiment in a line: Alternate Minimum Inhibitory Concentrations Test (Table 4), E.c. The conditions noted are these: Table 4 alternate test, 250 ppm to 0.8 ppm in TSB. Format: cell-based.
For test [17], the system named is Pseudomonas fluorescens. The experiment in a line: Alternate Minimum Inhibitory Concentrations Test (Table 4), Ps.fl. Format: cell-based. The conditions noted are these: Pseudomonas fluorescens; Table 4 alternate test; 250 ppm to 0.8 ppm in TSB, 72 hours, 30° C.; read-out: MIC Ps.fl. The gist of the method:
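Broth microdilution MIC in TSB: compound (from acetone stock) serially diluted 1:1 from 250 ppm to 0.8 ppm, inoculated with diluted 24 h culture. After 3 days at 30 °C, the lowest concentration with no growth was recorded as MIC.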

For another test, the system named is Pythium ultimum. The experiment in a line: Pythium ultimum in vitro Fungitoxicity Assay in liquid culture. Format: cell-based, Pythium ultimum (ATCC 26083). The settings on record: Globisporangium ultimum; mycelial dry weight, 48 h at 25° C., shaking at 60 rpm; read-out: EC 50. The protocol: Selected compounds of Examples 1-120 were subjected also to the following in vitro fungitoxicity assay against Pythium ultimum in a liquid culture, with the results as indicated in Table 6.
Pythium ultimum Fungitoxicity Assay
A dilution series of the test compound was prepared in dimethylsulfoxide, and 0.1 ml of each dilution was added to 19.9 ml of a liquid asparagine-sucrose medium (D. C. Erwin and K. Katznelson (1971), Can. J. Microbiol. 7, 15) in 9 cm diameter petri dishes to give the desired final concentrations of test compound. Plates were inoculated with mycelial plugs, 7 mm diameter, taken from the growing edge of 48 h old cultures of Pythium ultimum, (ATCC 26083), grown on potato dextrose agar. Two replicate plates were used for each treatment. The increase in mycelial dry weight was determined after growth for 48 h at 25° C. with shaking at 60 rpm. EC50 values were calculated from dose response curves.

[18] abbreviates: read-out: % Control TLB, application rate 100 ppm.

≈ marks a conversion by molar mass, not a printed value. Where two headings read alike, the source gives them in different places.

For `CCCCCCCCNC(=O)/C=C\SC(=O)CCC1CCCC1` [Compound 11, N-octyl-cis-3-[(3-cyclopentanepropanoyl)thio]acrylamide], the pest or weed control at 100 ppm in test [1] is 0%; in test [3] it was 50%; in [4] it was 0%; in the test with Phytophthora infestans (read-out: % Control TLB), 90%. The MIC (commonly the least concentration at which growth counts as inhibited) is more than 500 µg/mL with Escherichia coli [2]; 250 µg/mL (≈ 736 µM) in the test on Aspergillus niger [5]; less than 4 µg/mL in the test with Aureobasidium pullulans [6]; more than 500 µg/mL in the test on Staphylococcus aureus [7]; more than 500 µg/mL with Pseudomonas fluorescens [10]; more than 500 µg/mL in the test on Pseudomonas aerugenosa [11]. The pest or weed control at 50 ppm with Piricularia oryzae (read-out: % Control RB, application rate 50 ppm) was determined as 75%; in test [8] it was 85%. In addition, in test [9], the pest or weed control at 200 ppm stood at 90%.
Regarding `CCCCCCCCNC(=O)/C=C\SC(=O)CCCl` [Compound 24, N-octyl-cis-3-[(3-chloropropanoyl)thio]acrylamide], the MIC in the test on Pseudomonas aerugenosa [12] is more than 250 µg/mL; against Aureobasidium pullulans [13], less than 2 µg/mL; against Aspergillus niger [14] it was 63 µg/mL (≈ 206 µM); against Staphylococcus aureus [15] it was more than 250 µg/mL; with Candida albicans, 12 µg/mL (≈ 39.2 µM); in the test with Escherichia coli [16], more than 250 µg/mL. For the same compound, the minimal inhibitory concentration (MIC) in the test on Pseudomonas fluorescens [17] was more than 250 µg/mL. In addition, the pest or weed control at 100 ppm in test [1] is 0%; in test [3] it was 0%; in test [4] it was 0%; in the test with Phytophthora infestans (setting [18]), 95%; with Piricularia oryzae, 0%.
Regarding `CCCCCCCCNC(=O)/C=C\SC(=O)c1ccc(C)cc1C` [Compound 43, N-octyl-cis-3-[(2,4-dimethylbenzoyl)thio]acrylamide], the EC50 in the test with Pythium ultimum worked out at 5.2 µg/mL (≈ 15 µM). In addition, the MIC against Escherichia coli [2] is more than 500 µg/mL; against Aspergillus niger [5] it was more than 500 µg/mL; with Aureobasidium pullulans [6], 16 µg/mL (≈ 46 µM); with Staphylococcus aureus [7], more than 500 µg/mL; in the test with Pseudomonas fluorescens [10] it was more than 500 µg/mL; against Pseudomonas aerugenosa [11] it was more than 500 µg/mL. Further, the pest or weed control at 100 ppm (in [3]; in test [4]; in the test on Phytophthora infestans (setting [18]); in the test with Piricularia oryzae) was 0% each time. The pest or weed control at 50 ppm in test [8] came out at 50%. Besides, the pest or weed control at 200 ppm in test [9] was determined as 50%.
For `CCCCCCCCNC(=O)/C=C\SC(=O)c1ccc([N+](=O)[O-])c(OC)c1` [Compound 105, N-octyl-cis-3-[(3-methoxy-4-nitrobenzoyl)thio]acrylamide], the MIC in the test on Pseudomonas aerugenosa [12] was more than 250 µg/mL; with Aureobasidium pullulans [13] it was less than 2 µg/mL; in the test with Aspergillus niger [14] it was 24 µg/mL (≈ 60.8 µM); against Staphylococcus aureus [15], more than 250 µg/mL; in the test with Candida albicans, less than 2 µg/mL; against Escherichia coli [16] it was more than 250 µg/mL. Further, the MIC in the test on Pseudomonas fluorescens [17] was not below 125 µg/mL. The pest or weed control at 200 ppm in [3] amounted to 0%; in test [4], 0%; in the test with Phytophthora infestans, 0%; in test [8] it was 90%.
With `C#CCNC(=O)/C=C\SC(=O)c1ccccc1` [Compound 113, N-(2-propynyl)-cis-3-(benzoylthio)acrylamide], the MIC against Pseudomonas aerugenosa [12] was 125 µg/mL (≈ 510 µM); in the test on Aureobasidium pullulans [13], 31 µg/mL (≈ 126 µM); in the test with Aspergillus niger [14], not below 250 µg/mL; against Staphylococcus aureus [15] it was 63 µg/mL (≈ 257 µM); against Candida albicans it was not below 125 µg/mL; with Escherichia coli [16], 31 µg/mL (≈ 126 µM). Besides, in the test on Pseudomonas fluorescens [17], the MIC came to 63 µg/mL (≈ 257 µM). For the same compound, the EC50 in the test with Pythium ultimum turned out to be 6.9 µg/mL (≈ 28.1 µM). Moreover, in test [3], the pest or weed control at 50 ppm is 25%. Besides, the pest or weed control at 200 ppm in test [4] is 0%; in the test on Phytophthora infestans, 0%; with Piricularia oryzae (read-out: % Control RB, application rate 200 ppm), 0%; in test [8] it was 50%.

The values are drawn from US5300672A (priority 1992, dated 1994).
